In patent US4766130A, “2-phenyl-imidazopyridin-ones and also useful as cardiotonics and anti-hypertensives” (Celamerck GmbH & Co. KG, priority 1983, dated 1988):
Where a name gives a salt, the structure may show the parent alone.

Test system: anesthetized cats
Assay: Determination of the effect on blood pressure and the positive inotropic effect in anesthetized cats
Format: in vivo
Conditions: 2 mg/kg i.v.; for Increase in dp/dtmax in %: left ventricle contractility parameter; for Reduction in Blood Pressure in mm Hg: arterial pressure, aorta abdominalis
Experimental: Determination of the effect on blood pressure and the positive inotropic effect in anesthetized cats
The tests were carried out on cats which had been anesthetized with sodium pentobarbital (40 mg/kg i.p.). The animals breathed spontaneously. The arterial blood pressure was measured in the aorta abdominalis, using a Statham pressure transducer (P 23 Dc). To determine the positive inotropic effect, the pressure in the left ventricle was measured with a catheter-tip manometer (Millar PC-350 A). From this, the contractility parameter dp/dtmax was obtained, using an analogue differentiator. The test compounds were injected into a vena femoralis. The solvent used was physiological saline solution of Polydiol 200. Each compound was tested on at least 3 cats, dosage 2 mg/kg i.v.

| SMILES | Duration of effective action (Half life) [min] | Increase in dp/dtmax in % | Reduction in Blood Pressure in mm Hg (value after the slash) [mm Hg] | Reduction in Blood Pressure in mm Hg (value before the slash) [mm Hg] |
| --- | --- | --- | --- | --- |
| COc1cc(OS(C)(=O)=O)ccc1-c1nc2nc(OS(C)(=O)=O)ccc2[nH]1 (single isomer, unassigned) [B, 2-(2-methoxy-4-methanesulfonyloxy-phenyl)-5-methanesulfonyloxy-imidazo[4,5-b]pyridine] | 37 | +53% | -42 | -50 |
| COc1cc(OS(C)(=O)=O)ccc1-c1nc2[nH]c(=O)ncc2[nH]1 [A, 8-(2-methoxy-4-methanesulfonyloxy-phenyl)-3(1)H-purin-2-one] | 42 | +48% | -6 | -8 |
| COc1cc(OS(C)(=O)=O)ccc1C1=NC2=CCC(=O)NC2=N1 [C, 2-(2-methoxy-4-methanesulfonyloxy-phenyl)-4H-imidazo[4,5-b]pyridin-5-one] | 31 | +158% | -54 | -54 |
| COc1cc(OS(C)(=O)=O)ccc1-c1nc2c(=O)[nH]ccc2[nH]1 [D, 2-(2-methoxy-4-methanesulfonyloxy-phenyl)-5H-imidazo[4,5-c]pyridin-4-one hydrochloride] | 31 | +117% | -42 | -42 |
| COc1cc(OS(C)(=O)=O)ccc1-c1nc2c(OS(C)(=O)=O)nccc2[nH]1 [E, 2-(2-methoxy-4-methanesulfonyloxy-phenyl)-4-methanesulfonyloxy-imidazo[4,5-c]pyridine] | 29 | +87% | -27 | -35 |
| C#CCOc1ccc(-c2nc3c(=O)[nH]ccc3[nH]2)c(OC)c1 [F, 2-(2-methoxy-4-propargyloxy-phenyl)=5H-imidazo[4,5-c]pyridin-4-one] | 8 | +138% | -47 | -59 |
| COc1cc(OS(C)(=O)=O)ccc1C1=NC2=NCC(=O)NC2=N1 [G, 2-(2-methoxy-4-methanesulfonyloxy-phenyl)-4H-imidazo[4,5-b]pyrazin-5-one] | 5 | +100% | -27 | -26 |
